Laboratory results from article PMC11374673, “Discovery of isoquinoline sulfonamides as allosteric gyrase inhibitors with activity against fluoroquinolone-resistant bacteria” (Nature Chemistry, 2024).
Values after ≈ are worked out from the molar mass of the structure shown. Values joined by “and” are separate entries in the source; they are usually repeats but may differ in a detail not shown here. Equal values may be shown once. Read-outs that look alike come from different tables or passages of the source.

Tests used:
E. coli W3110 = assay: MIC by broth microdilution; type: cell-based, Escherichia coli; settings: Escherichia coli
Procedure, shortened: (§1)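 Exponential-phase cultures (OD600 0.5, 37 °C aerobic), diluted 100-fold in CAMHB, were added to twofold compound dilution series. Keio strains grown with 50 µg ml^−1 kanamycin. Plates incubated overnight at 37 °C, shaking at 600 r.p.m.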

HEK293T = assay: Cytotoxicity assay (MTT); type: cell-based, human; settings: for cytotoxicity: HEK293T and HepG2; for MTT data (raw readout): HEK293T; for IC50: 24 h, MTT
Procedure, shortened: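 HEK293T cells, maintained at 37 °C and 7% CO2 in Dulbecco’s modified Eagle medium with GlutaMax, antibiotics and serum, were plated in clear 96-well plates in 100 µl medium containing 1% fetal bovine serum and left 24 h to attach. After 24 h compound exposure, MTT (0.40 mg ml^−1) was added for 2 h. Formazan was dissolved in 100 µl DMSO and absorbance measured at 570 nm. Background-corrected IC50 values came from variable-slope non-linear fits.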

HepG2 = assay: Cytotoxicity assay (MTT); type: cell-based, human; settings: for IC50: MTT, 24 h
K. pneumoniae ATCC 29665 = assay: MIC by broth microdilution; type: cell-based, Klebsiella pneumoniae; settings: Klebsiella pneumoniae
Procedure, shortened: as §1

[1] = 0.023 uM, experiment n = 1, technical triplicates
[2] = 0.023 uM, experiment n = 2, technical triplicates
[3] = 0.068 uM, experiment n = 1, technical triplicates
[4] = 0.068 uM, experiment n = 2, technical triplicates
[5] = 0.21 uM, experiment n = 1, technical triplicates
[6] = 0.21 uM, experiment n = 2, technical triplicates
[7] = 0.62 uM, experiment n = 1, technical triplicates
[8] = 0.62 uM, experiment n = 2, technical triplicates
[9] = 1.85 uM, experiment n = 1, technical triplicates
[10] = 1.85 uM, experiment n = 2, technical triplicates
[11] = HepG2, 0.023 uM, experiment n = 1, technical triplicates
[12] = HepG2, 0.023 uM, experiment n = 2, technical triplicates
[13] = HepG2, 0.068 uM, experiment n = 1, technical triplicates
[14] = HepG2, 0.068 uM, experiment n = 2, technical triplicates
[15] = HepG2, 0.21 uM, experiment n = 1, technical triplicates
[16] = HepG2, 0.21 uM, experiment n = 2, technical triplicates
[17] = HepG2, 0.62 uM, experiment n = 1, technical triplicates
[18] = HepG2, 0.62 uM, experiment n = 2, technical triplicates
[19] = HepG2, 1.85 uM, experiment n = 1, technical triplicates
[20] = HepG2, 1.85 uM, experiment n = 2, technical triplicates
[21] = ATCC29665, broth microdilution, read-out: MIC K. pneumoniae ATCC 29665

O=S(=O)(NCCNCc1ccc(-c2ccc(F)nc2)cc1)c1cccc2cnccc12 [Compound 60]
MIC (E. coli W3110; W3110, read-out: MIC E. coli W3110): 6.25 µM (≈ 2.73 µg/mL) | cytotoxicity (HEK293T): lowest cytotoxicity | MTT data (raw readout) (HEK293T; [1]): 0.733 and 0.692 | MTT data (raw readout) (HEK293T; [2]): 0.767 and 0.777 and 0.816 | MTT data (raw readout) (HEK293T; [3]): 0.746 and 0.796 and 0.737 | MTT data (raw readout) (HEK293T; [4]): 0.800 and 0.790 and 0.829 | MTT data (raw readout) (HEK293T; [5]): 0.734 and 0.766 and 0.710 | MTT data (raw readout) (HEK293T; [6]): 0.783 and 0.732 and 0.731 | MTT data (raw readout) (HEK293T; [7]): 0.735 and 0.740 and 0.733 | MTT data (raw readout) (HEK293T; [8]): 0.809 and 0.824 and 0.770 | MTT data (raw readout) (HEK293T; [9]): 0.725 and 0.718 and 0.739 | MTT data (raw readout) (HEK293T; [10]): 0.764 and 0.783 and 0.787 | IC50 (HEK293T; Homo sapiens, HEK-293T): 51 µM | IC50 (HEK293T): > 50 µM | MTT data (raw readout) (HepG2; [11]): 0.514 and 0.522 and 0.506 | MTT data (raw readout) (HepG2; [12]): 0.553 and 0.550 and 0.561 | MTT data (raw readout) (HepG2; [13]): 0.526 and 0.514 and 0.522 | MTT data (raw readout) (HepG2; [14]): 0.571 and 0.568 and 0.585 | MTT data (raw readout) (HepG2; [15]): 0.544 and 0.520 and 0.508 | MTT data (raw readout) (HepG2; [16]): 0.610 and 0.553 and 0.611 | MTT data (raw readout) (HepG2; [17]): 0.525 and 0.501 and 0.502 | MTT data (raw readout) (HepG2; [18]): 0.621 and 0.610 and 0.573 | MTT data (raw readout) (HepG2; [19]): 0.546 and 0.544 and 0.528 | MTT data (raw readout) (HepG2; [20]): 0.581 and 0.605 | IC50 (HepG2; Homo sapiens, HepG2, 24 h): > 100 µM | IC50 (HepG2): > 50 µM | MIC (K. pneumoniae ATCC 29665; [21]): 25 µM (≈ 10.9 µg/mL) | MIC (K. pneumoniae ATCC 29665; ATCC29665, read-out: MIC K. pneumoniae ATCC 29665): 6.25 µM (≈ 2.73 µg/mL)

O=S(=O)(NC[C@@H]1CC[C@H](c2ccc(-c3ccc(F)cc3)cc2)N1)c1cccc2cnccc12 [Compound 101]
MIC (E. coli W3110; W3110, WT, broth microdilution, read-out: MIC E. coli W3110): 1.6 µM (≈ 0.738 µg/mL) | cytotoxicity (HEK293T): substantial cytotoxicity | MTT data (raw readout) (HEK293T; [1]): 1.467 and 1.369 and 1.336 | MTT data (raw readout) (HEK293T; [2]): 0.913 and 0.978 and 0.995 | MTT data (raw readout) (HEK293T; [3]): 1.354 and 1.258 and 1.005 | MTT data (raw readout) (HEK293T; [4]): 1.026 and 1.021 and 0.846 | MTT data (raw readout) (HEK293T; [5]): 1.223 and 1.254 and 1.173 | MTT data (raw readout) (HEK293T; [6]): 1.069 and 0.984 and 0.926 | MTT data (raw readout) (HEK293T; [7]): 1.112 and 0.937 and 0.942 | MTT data (raw readout) (HEK293T; [8]): 0.770 and 0.738 and 0.688 | MTT data (raw readout) (HEK293T; [9]): 0.725 and 0.641 and 0.684 | MTT data (raw readout) (HEK293T; [10]): 0.521 and 0.485 and 0.507 | MTT data (raw readout) (HEK293T; 5.6 uM, experiment n = 1, technical triplicates): 0.749 and 0.695 and 0.667 | MTT data (raw readout) (HEK293T; 5.6 uM, experiment n = 2, technical triplicates): 0.483 and 0.462 and 0.474 | MTT data (raw readout) (HEK293T; 16.7 uM, experiment n = 1, technical triplicates): 0.450 and 0.504 and 0.484 | MTT data (raw readout) (HEK293T; 16.7 uM, experiment n = 2, technical triplicates): 0.372 and 0.345 | MTT data (raw readout) (HEK293T; 50 uM, experiment n = 2, technical triplicates): 0.011 and 0.012 | IC50 (HEK293T; Homo sapiens, HEK-293T): 3.2 µM | MTT data (raw readout) (HepG2; [11]): 0.470 and 0.394 and 0.364 | MTT data (raw readout) (HepG2; [12]): 0.305 and 0.260 and 0.288 | MTT data (raw readout) (HepG2; [13]): 0.452 and 0.420 and 0.368 | MTT data (raw readout) (HepG2; [14]): 0.322 and 0.313 and 0.323 | MTT data (raw readout) (HepG2; [15]): 0.390 and 0.419 and 0.407 | MTT data (raw readout) (HepG2; [16]): 0.324 and 0.279 and 0.267 | MTT data (raw readout) (HepG2; [17]): 0.368 and 0.340 and 0.370 | MTT data (raw readout) (HepG2; [18]): 0.315 and 0.269 and 0.267 | MTT data (raw readout) (HepG2; [19]): 0.439 and 0.392 and 0.378 | MTT data (raw readout) (HepG2; [20]): 0.289 and 0.297 and 0.299 | MTT data (raw readout) (HepG2; HepG2, 5.6 uM, experiment n = 1, technical triplicates): 0.403 and 0.384 and 0.371 | MTT data (raw readout) (HepG2; HepG2, 5.6 uM, experiment n = 2, technical triplicates): 0.315 and 0.277 and 0.266 | MTT data (raw readout) (HepG2; HepG2, 16.7 uM, experiment n = 1, technical triplicates): 0.208 and 0.211 and 0.189 | MTT data (raw readout) (HepG2; HepG2, 16.7 uM, experiment n = 2, technical triplicates): 0.140 and 0.112 and 0.095 | IC50 (HepG2; Homo sapiens, HepG2, 24 h): 13 µM | MIC (K. pneumoniae ATCC 29665; [21]): 3.1 µM (≈ 1.43 µg/mL)
